Laboratory results as given in patent US20130004516A1, “DRUG FOR INFLAMMATORY BOWEL DISEASE” (DAINIPPON SUMITOMO PHARMA CO., LTD., priority 2010, published 2013).

Test system: mouse model of relapse-remitting type ulcerative colitis
Assay: Ulcer score of the large intestine in the mouse model of colitis induced by 1% DSS (Example 1)
Type: in vivo
Conditions: day of completion; score 1 = ulcer of 1 mm^2 or larger; antibodies 0.5 mg/mouse intraperitoneally once; sulfasalazine 200 mg/kg orally once a day
Experimental: An aqueous solution of dextran sulfate (DSS) was administered to a mouse to induce relapse-remitting type ulcerative colitis. To this mouse model of relapse-remitting type ulcerative colitis, an anti-CD81 antibody was administered once and a relapse (recurrence)-inhibitory effect of single-dose administration of an anti-CD81 antibody on ulcerative colitis was examined by comparing with single-dose administration of an anti-TNF-α antibody and multiple-dose administration of sulfasalazine, both of which are the existing therapeutic agents.
Dextran sulfate (the product of TdB consultancy AB, an average molecular weight of 47,000) was dissolved in drinking water to prepare a 1% aqueous solution. […]
Four-week-old mice (BALB/cAnNCrj, male, the product of Charles River Laboratories Japan, Inc.) were purchased, and the mice in which no abnormality was found after six days of quarantine rearing were measured for body weight and then divided into six groups, where one group contained 10 mice. […]
On the day of completion of the experiment, 0.1 ml of a 2.5% brilliant blue 6B solution was administered to all groups of mice via tail vein. […] Subsequently, the large intestine was thoroughly washed with an ethanol solution and the size of ulcer was measured. […]

`O=C(O)c1cc(/N=N/c2ccc(S(=O)(=O)Nc3ccccn3)cc2)ccc1O` [Sulfasalazine, sulfasalazine] gave a Ulcer score of 0.1.
